In assay [1] the test system is TSH release. The note with it: relative to TRH; cited from earlier work.
Assay [2] has as its target T1, TRH receptor binding sites in pituitary (Rattus norvegicus, UniProt Q01717).
T1 construct: from tissue; host or cells: rat anterior pituitary membrane pellet (homogenate, 39000 g)
T1 sequence (Q01717 1-412): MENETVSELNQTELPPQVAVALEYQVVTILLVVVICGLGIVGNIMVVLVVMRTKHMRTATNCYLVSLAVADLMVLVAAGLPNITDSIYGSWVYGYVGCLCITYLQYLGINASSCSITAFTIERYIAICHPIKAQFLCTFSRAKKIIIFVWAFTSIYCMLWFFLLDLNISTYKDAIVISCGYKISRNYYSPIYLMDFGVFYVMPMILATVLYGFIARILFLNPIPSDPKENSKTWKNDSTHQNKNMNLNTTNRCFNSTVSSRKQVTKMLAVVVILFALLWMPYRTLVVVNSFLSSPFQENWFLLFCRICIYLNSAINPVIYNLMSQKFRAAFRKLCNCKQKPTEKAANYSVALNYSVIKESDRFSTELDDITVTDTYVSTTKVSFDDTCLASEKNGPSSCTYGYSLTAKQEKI
Description: Receptor binding assay, [3H][3-Me-His2]-TRH competition, anterior pituitary homogenate. The arrangement: species or system rat (Sprague-Dawley). To be noted: rat anterior pituitary membranes; [3H][3-Me-His2]-TRH 3 to 5 nM; 4-6 °C, 2.5 hours; mean ± S.E.M. On the procedure: (§1) Adult, male Sprague-Dawley rats were obtained from Taconic Farms (Germantown, N.Y.) and housed at controlled temperature (22° C.) and light cycle (12/12 h) with free access to food and water. On the experimental day, six to eight animals were rapidly decapitated and their brains quickly removed and placed on a cold plate. Anterior pituitary and cortex tissue samples were obtained and processed immediately for receptor-binding experiments.
(§2) All steps of the tissue preparation and binding assays were done on ice. After weighing, pooled tissue samples were homogenized in 25 ml of ice-cold sodium phosphate buffer (0.1M, pH 7.4-7.5), using a Brinkmann Polytron homogenizer (setting 7, 15-20 s). The homogenates were then centrifuged in a refrigerated Sorvall RC5B centrifuge at 39000 g for 30 minutes. The supernatants were discharged and the pellets were resuspended to a concentration of 50 (pituitary) or 100 mg wet weight/ml (ww/ml, cortex) in ice-cold sodium phosphate buffer containing 177 μM Bacitracin.
(§3) Competition experiments were performed by incubating mixtures of tissue resuspensions, [3H][3-Me-His2]-TRH (87 Ci/mmol, Amersham) in 3 to 5 nM final concentration and increasing amounts of analog in a total volume of 100 μl/vial at 4° to 6° C. for 2.5 hours. In order to limit loss of peptides by adherence to glass, 0.05% bovine serum albumin was included in the assays. Nonspecific binding was determined in the presence of 10 μM TRH. The incubation period was terminated by vacuum filtration of the incubation mixture through Whatman GF/B glass filters, using a 48-well cell harvester (Brandel Inc., Gaithersburg, Md.), followed by four rinses with 4 ml each of ice-cold 0.9% NaCl solution. Filters were then placed in scintillation vials and kept overnight in 5 ml of watermiscible scintillation fluid (Beckman Ready-SolvTM HP) each. Bound radioactivity was measured after thorough shaking of the vials on the following day in an LKB 1218 Rackbeta liquid scintillation counter with automatic correction for tritium quenching. Specific binding was calculated as total binding minus nonspecific binding. Inhibition constants, Ki, were determined according to Cheng and Prusoff (1973) using the radioligand-binding analysis software LIGAND (Elsevier-Biosoft; Munson and Rodbard, 1980). Unless otherwise stated, data in tables and figures represent mean values±S.E.M. (standard error of the mean of separate experiments done in duplicate).

The target in assay [3] is TRH receptor binding sites in cortex. Kind of assay: Receptor binding assay, [3H][3-Me-His2]-TRH competition, cortex homogenate. Also noted: species or system rat (Sprague-Dawley). The note with it: rat cortex membranes; [3H][3-Me-His2]-TRH 3 to 5 nM; 4-6 °C, 2.5 hours; mean ± S.E.M. The method, then:
as §1, §2
as §3, with “The incubation period was terminated by vacuum filtration of the incubation mixture through Whatman GF/B glass filters, using a 48-well cell harvester (Brandel Inc., Gaithersburg, Md.), followed by four rinses with 4 ml each of ice-cold 0.9% NaCl solution.” left out, “Unless otherwise stated, data in tables and figures represent mean values±S.E.M. (standard error of the mean of separate experiments done in duplicate).” left out

Assay [4] deals with TSH release. The note with it: compared with natural TRH; reported by Kruszynski; cited from earlier work.
The subject of the next assay is TRH receptor. The note with it: compared with natural TRH; reported by Kruszynski; cited from earlier work.

Structures are written as SMILES.

With `NC(=S)[C@@H]1CCCN1C(=O)[C@H](Cc1c[nH]cn1)NC(=O)[C@@H]1CCC(=S)N1` [Example 2, L-thiopyroglutamyl-L-histidyl-L-proline thioamide], the “potency in stimulating TSH release compared with TRH” value in the assay with TSH release [1] is recorded as “more potent than TRH”. Also, the figures for the inhibition constant (Ki) in assay [2] and in assay [3] were 85.4 ± 17.8 nM and 86.1 ± 6.3 nM, respectively.

As to `NC(=O)[C@@H]1CCCN1C(=O)[C@H](Cc1c[nH]cn1)NC(=O)[C@@H]1CCC(=O)N1` [TRH, L-pyroglutamyl-L-histidyl-L-proline-amide, reference compound], the inhibitory constant (Ki) (usually a dissociation constant, usually derived from enzyme kinetics or from competition with a known ligand) stood at 24.1 ± 14.2 nM in assay [2] and 26.1 ± 4.5 nM in assay [3].

Turning to `NC(=S)[C@@H]1CCCN1C(=O)[C@H](Cc1c[nH]cn1)NC(=O)[C@@H]1CCC(=O)N1` [Example 3, L-pyroglutamyl-L-histidyl-L-proline thioamide], the Ki in assay [2] was 8 ± 0.2 nM; in assay [3] it was 93.1 ± 16.5 nM. Also, in the assay on TSH release [4], the TSH releasing activity entry was “matching that of natural TRH”. The “TRH receptor binding affinity” value in the assay with TRH receptor is given as “matching that of natural TRH”.

Consider `NC(=O)[C@@H]1CCCN1C(=O)[C@H](Cc1c[nH]cn1)NC(=O)[C@@H]1CCC(=S)N1` [Example 1, L-thiopyroglutamyl-L-histidyl-L-oroline amide], for which the Ki in assay [2] turned out to be 31.9 ± 2.9 nM.

The values are drawn from US5244884A, “Thionated analogues of thyrotropin releasing hormone” (The United States of America as represented by the …, priority 1992, dated 1993).
